Measured values taken from patent US9919998B2, “Antibacterial agents: Nα-aroyl-N-aryl-phenylalaninamides” (priority 2014, dated 2018).
≈ marks a conversion by molar mass, not a printed value.

How the values were obtained:
Format in all cases: cell-based
[1] = system: Mycobacterium tuberculosis H37Rv; assay: Microplate Alamar Blue assay (MABA) MIC, M. tuberculosis; conditions: read-out: MIC Mycobacterium tuberculosis H37Rv
Source text: (§1) Minimal inhibitory concentrations (MICs) in Mycobacterium tuberculosis H37Rv and Mycobacterium avium ATCC 25291 were quantified using microplate Alamar Blue assays as described (MABA; [Collins, L. & Franzblau, S. (1997) Microplate Alamar Blue assay versus BACTEC 460 system for high-throughput screening of compounds against Mycobacterium tuberculosis and Mycobacterium avium. Antimicrob. Agents Chemother. 41, 1004-1009]).

[2] = system: Mycobacterium avium ATCC 25291; assay: Microplate Alamar Blue assay (MABA) MIC, M. avium; conditions: ATCC25291, M. avium ATCC 25291
Source text: as §1

[3] = system: Mycobacterium smegmatis ATCC 19420; assay: Broth microdilution MIC, M. smegmatis; conditions: Mycolicibacterium smegmatis, ATCC19420, M. smegmatis ATCC 19420; read-out: MIC Mycobacterium smegmatis ATCC 19420
Source text: MICs in Mycobacterium smegmatis ATCC 19420 and Mycobacterium smegmatis ATCC 19420 derivatives were quantified using broth microdilution assays as described [Clinical and Laboratory Standards Institute (CLSI/NCCLS) (2009) Methods for Dilution Antimicrobial Susceptibility Tests for Bacteria That Grow Aerobically; Approved Standard, Eighth Edition. CLIS Document M07-A8 (CLIS, Wayne Pa.)].

[4] = system: Vero E6 ATCC CRL1586 cells; assay: Mammalian-cell cytotoxicity, minimal cytotoxic concentration (CellTiter96)
Procedure: Minimal cytotoxic concentrations (MCCs) against mammalian cells in culture were determined using Vero E6 ATCC CRL1586 cells and the CellTiter96 assay kit (Promega, Inc.). […]

| SMILES | MIC [1] [µg/mL] | MIC [2] [µg/mL] | MIC [3] [µg/mL] | MCC mammalian cells Vero E6 ATCC CRL1586 [4] [µg/mL] |
| --- | --- | --- | --- | --- |
| O=C(NC(Cc1ccccc1)C(=O)Nc1cccc2[nH]ncc12)c1ccccc1F (stereo not drawn) [IX-128, N-(1-((1H-indazol-4-yl)amino)-1-oxo-3-phenylpropan-2-yl)-2-fluorobenzamide] | 12.5 (≈ 31.1 µM) | 25 (≈ 62.1 µM) | 0.39 (≈ 0.969 µM) | 58 |
| O=C(NC(Cc1ccccc1)C(=O)Nc1ccccc1N1CCSCC1)c1ccccc1 (stereo not drawn) [IX-149, N-(1-oxo-3-phenyl-1-((2-thiomorpholinophenyl)amino)propan-2-yl)-benzamide] | 3.12 (≈ 7.01 µM) | > 50 | 0.095 (≈ 0.213 µM) | >100 |
| O=C(NC(Cc1ccccc1)C(=O)Nc1ccccc1N1CCNCC1)c1ccccc1 (stereo not drawn) [IX-150, N-(1-oxo-3-phenyl-1-((2-(piperazin-1-yl)phenyl)amino)propan-2-yl)-benzamide] | 6.25 (≈ 14.6 µM) | 3.12 (≈ 7.29 µM) | 0.39 (≈ 0.91 µM) | 38 |
| CN1CCN(c2ccccc2NC(=O)C(Cc2ccccc2)NC(=O)c2ccccc2)CC1 (stereo not drawn) [IX-151, N-(1-((2-(4-methylpiperazin-1-yl)phenyl)amino)-1-oxo-3-phenyl-propan-2-yl)benzamide] | 12.5 (≈ 28.2 µM) | 12.5 (≈ 28.2 µM) | 0.78 (≈ 1.76 µM) | 35 |
| O=C(NC(Cc1ccccc1)C(=O)Nc1ccccc1N1CCOCC1)c1ccccc1F (stereo not drawn) [IX-152, 2-fluoro-N-(1-((2-morpholinophenyl)amino)-1-oxo-3-phenylpropan-2-yl)benzamide] | 1.56 (≈ 3.49 µM) | 3.12 (≈ 6.98 µM) | 0.073 (≈ 0.163 µM) | 90 |
| Cc1ccccc1C(=O)NC(Cc1ccccc1)C(=O)Nc1ccccc1N1CCOCC1 (stereo not drawn) [IX-153, 2-methyl-N-(1-((2-morpholinophenyl)amino)-1-oxo-3-phenylpropan-2-yl)benzamide] | 0.78 (≈ 1.76 µM) | 1.56 (≈ 3.52 µM) | 0.036 (≈ 0.0812 µM) | 84 |
| O=C(NC(Cc1ccc(O)cc1)C(=O)Nc1ccccc1N1CCOCC1)c1ccccc1 (stereo not drawn) [IX-154, N-(3-(4-hydroxyphenyl)-1-((2-morpholinophenyl)amino)-1-oxo-propan-2-yl)benzamide] | 1.56 (≈ 3.5 µM) | 1.56 (≈ 3.5 µM) | 0.095 (≈ 0.213 µM) | >100 |
| O=C(NC(Cc1ccc(O)cc1)C(=O)Nc1ccccc1N1CCOCC1)c1ccccc1F (stereo not drawn) [IX-155, 2-fluoro-N-(3-(4-hydroxyphenyl)-1-((2-morpholinophenyl)amino)-1-oxopropan-2-yl)benzamide] | 1.56 (≈ 3.37 µM) | 12.5 (≈ 27 µM) | 0.195 (≈ 0.421 µM) | 77 |
| Cc1ccccc1C(=O)NC(Cc1ccc(O)cc1)C(=O)Nc1ccccc1N1CCOCC1 (stereo not drawn) [IX-156, N-(3-(4-hydroxyphenyl)-1-((2-morpholinophenyl)amino)-1-oxopropan-2-yl)-2-methylbenzamide] | 1.56 (≈ 3.39 µM) | 3.12 (≈ 6.8 µM) | 0.095 (≈ 0.207 µM) | 81 |
| O=C(NC(Cc1ccccc1)C(=O)Nc1cc(F)ccc1N1CCOCC1)c1ccccc1 (stereo not drawn) [IX-157, N-(1-((5-fluoro-2-morpholinophenyl)amino)-1-oxo-3-phenylpropan-2-yl)benzamide] | 0.78 (≈ 1.74 µM) | 1.56 (≈ 3.49 µM) | 0.047 (≈ 0.105 µM) | 48 |
| O=C(NC(Cc1ccccc1)C(=O)Nc1cc(F)ccc1N1CCOCC1)c1ccccc1F (stereo not drawn) [IX-158, 2-fluoro-N-(1-((5-fluoro-2-morpholinophenyl)amino)-1-oxo-3-phenyl-propan-2-yl)benzamide] | 0.78 (≈ 1.68 µM) | 0.78 (≈ 1.68 µM) | 0.097 (≈ 0.208 µM) | >100 |
| Cc1ccccc1C(=O)NC(Cc1ccccc1)C(=O)Nc1cc(F)ccc1N1CCOCC1 (stereo not drawn) [IX-159, N-(1-((5-fluoro-2-morpholinophenyl)amino)-1-oxo-3-phenylpropan-2-yl)-2-methylbenzamide] | 0.39 (≈ 0.845 µM) | 0.39 (≈ 0.845 µM) | 0.047 (≈ 0.102 µM) | 10 |
| O=C(NC(Cc1ccccc1)C(=O)Nc1cc(F)ccc1N1CCOCC1)c1cccs1 (stereo not drawn) [IX-160, N-(1-((5-fluoro-2-morpholinophenyl)amino)-1-oxo-3-phenylpropan-2-yl)thiophene-2-carboxamide] | 0.78 (≈ 1.72 µM) | 0.78 (≈ 1.72 µM) | 0.097 (≈ 0.214 µM) | 30 |
| O=C(NC(Cc1ccc(O)cc1)C(=O)Nc1cccc2c1OCCO2)c1ccccc1Br (stereo not drawn) [IX-176, 2-bromo-N-(1-((2,3-dihydrobenzo[b][1,4]dioxin-5-yl)amino)-3-(4-hydroxyphenyl)-1-oxopropan-2-yl)benzamide] | 6.25 (≈ 12.6 µM) | 6.25 (≈ 12.6 µM) | 3.1 (≈ 6.23 µM) | 100.0 |
| O=C(NC(Cc1ccccc1)C(=O)Nc1cc(F)ccc1OCF)c1ccccc1F (stereo not drawn) [IX-177, 2-fluoro-N-(1-((5-fluoro-2-(fluoromethoxy)phenyl)amino)-1-oxo-3-phenylpropan-2-yl)benzamide] | 0.39 (≈ 0.91 µM) | 0.78 (≈ 1.82 µM) | 0.39 (≈ 0.91 µM) | >100 |
| CC(=O)Oc1ccc(CC(NC(=O)c2ccccc2F)C(=O)Nc2ccccc2N2CCOCC2)cc1 (stereo not drawn) [IX-180, 4-(2-(2-fluorobenzamido)-3-((2-morpholinophenyl)amino)-3-oxopropyl)phenyl acetate] | 1.56 | 6.25 | 0.097 | 91 |
| CC(=O)Oc1ccc(CC(NC(=O)c2ccccc2C)C(=O)Nc2ccccc2N2CCOCC2)cc1 (stereo not drawn) [IX-181, 4-(2-(2-methylbenzamido)-3-((2-morpholinophenyl)amino)-3-oxopropyl)phenyl acetate] | 0.78 | 3.12 | 0.097 | 84 |
| CC(=O)Oc1ccc(CC(NC(=O)c2cccs2)C(=O)Nc2ccccc2N2CCOCC2)cc1 (stereo not drawn) [IX-182, 4-(3-((2-morpholinophenyl)amino)-3-oxo-2-(thiophene-2-carbox-amido)propyl)phenyl acetate] | 0.78 | 3.12 | 0.097 | 99 |
| O=C(NC(Cc1ccc(O)cc1)C(=O)Nc1ccccc1N1CCOCC1)c1cccs1 (stereo not drawn) [IX-183, N-(3-(4-hydroxyphenyl)-1-((2-morpholinophenyl)amino)-1-oxopropan-2-yl)thiophene-2-carboxamide] | 1.56 (≈ 3.45 µM) | 6.25 (≈ 13.8 µM) | 0.097 (≈ 0.215 µM) | >100 |
| Cc1ccc(F)cc1NC(=O)C(Cc1ccc(O)cc1)NC(=O)c1ccccc1F (stereo not drawn) [IX-184, 2-fluoro-N-(1-((5-fluoro-2-methylphenyl)amino)-3-(4-hydroxy-phenyl)-1-oxopropan-2-yl)benzamide] | 1.56 (≈ 3.8 µM) | 3.12 (≈ 7.61 µM) | 0.39 (≈ 0.95 µM) | 77 |
| Cc1ccc(F)cc1NC(=O)C(Cc1ccc(O)cc1)NC(=O)c1ccccc1C (stereo not drawn) [IX-186, N-(1-((5-fluoro-2-methylphenyl)amino)-3-(4-hydroxyphenyl)-1-oxopropan-2-yl)-2-methylbenzamide] | 1.56 (≈ 3.84 µM) | 3.12 (≈ 7.69 µM) | 0.39 (≈ 0.96 µM) | 78 |
| Cc1ccc(F)cc1NC(=O)C(Cc1ccc(O)cc1)NC(=O)c1cccs1 (stereo not drawn) [IX-188, N-(1-((5-fluoro-2-methylphenyl)amino)-3-(4-hydroxyphenyl)-1-oxopropan-2-yl)thiophene-2-carboxamide] | 1.56 (≈ 3.92 µM) | 1.56 (≈ 3.92 µM) | 0.097 (≈ 0.243 µM) | 48 |
| Cc1ccccc1C(=O)NC(Cc1ccccc1)C(=O)Nc1cccc2[nH]ncc12 (stereo not drawn) [IX-191, N-(1-((1H-indazol-4-yl)amino)-1-oxo-3-phenylpropan-2-yl)-2-methyl-benzamide] | 12.5 (≈ 31.4 µM) | 12.5 (≈ 31.4 µM) | 0.39 (≈ 0.979 µM) | >100 |
| O=C(NC(Cc1ccccc1)C(=O)Nc1cccc2[nH]ncc12)c1cccs1 (stereo not drawn) [IX-201, N-(1-((1H-indazol-4-yl)amino)-1-oxo-3-phenylpropan-2-yl)thiophene-2-carboxamide] | 25 (≈ 64 µM) | 12.5 (≈ 32 µM) | 0.09 (≈ 0.23 µM) | 47 |
| COc1ccc(F)cc1NC(=O)C(Cc1ccc(O)cc1)NC(=O)c1ccccc1 (stereo not drawn) [IX-203, N-(1-((5-fluoro-2-methoxyphenyl)amino)-3-(4-hydroxyphenyl)-1-oxopropan-2-yl)benzamide] | 0.78 (≈ 1.91 µM) | 0.78 (≈ 1.91 µM) | 0.195 (≈ 0.477 µM) | >100 |
| COc1ccc(F)cc1NC(=O)C(Cc1ccc(O)cc1)NC(=O)c1ccccc1C (stereo not drawn) [IX-205, N-(1-((5-fluoro-2-methoxyphenyl)amino)-3-(4-hydroxyphenyl)-1-oxopropan-2-yl)-2-methylbenzamide] | 0.78 (≈ 1.85 µM) | 0.78 (≈ 1.85 µM) | 0.39 (≈ 0.923 µM) | 70 |
| COc1ccc(F)cc1NC(=O)C(Cc1ccc(O)cc1)NC(=O)c1cccs1 (stereo not drawn) [IX-206, N-(1-((5-fluoro-2-methoxyphenyl)amino)-3-(4-hydroxyphenyl)-1-oxopropan-2-yl)thiophene-2-carboxamide] | 0.78 (≈ 1.88 µM) | 0.39 (≈ 0.941 µM) | 0.195 (≈ 0.47 µM) | 70 |
